Values of other authors as cited in US20240156825A1, “USE OF SELECTIVE VEGFR2 AND FGFR1 INHIBITORS” (Fountain Therapeutics Inc., priority 2022, published 2024).
Like-named read-outs stand apart in the source and are kept apart here.

Legend:
[1] = system: any gene target; conditions: next lowest IC50 value to any gene target, read-out: Min IC50_μM, cited from earlier work
[2] = biological target: VEGFR2 (Homo sapiens, UniProt P35968); conditions: reported IC50 to VEGFR2, read-out: VEGFR2 IC50_μM, cited from earlier work
Sequence of VEGFR2 (P35968 20-1356, species assumed): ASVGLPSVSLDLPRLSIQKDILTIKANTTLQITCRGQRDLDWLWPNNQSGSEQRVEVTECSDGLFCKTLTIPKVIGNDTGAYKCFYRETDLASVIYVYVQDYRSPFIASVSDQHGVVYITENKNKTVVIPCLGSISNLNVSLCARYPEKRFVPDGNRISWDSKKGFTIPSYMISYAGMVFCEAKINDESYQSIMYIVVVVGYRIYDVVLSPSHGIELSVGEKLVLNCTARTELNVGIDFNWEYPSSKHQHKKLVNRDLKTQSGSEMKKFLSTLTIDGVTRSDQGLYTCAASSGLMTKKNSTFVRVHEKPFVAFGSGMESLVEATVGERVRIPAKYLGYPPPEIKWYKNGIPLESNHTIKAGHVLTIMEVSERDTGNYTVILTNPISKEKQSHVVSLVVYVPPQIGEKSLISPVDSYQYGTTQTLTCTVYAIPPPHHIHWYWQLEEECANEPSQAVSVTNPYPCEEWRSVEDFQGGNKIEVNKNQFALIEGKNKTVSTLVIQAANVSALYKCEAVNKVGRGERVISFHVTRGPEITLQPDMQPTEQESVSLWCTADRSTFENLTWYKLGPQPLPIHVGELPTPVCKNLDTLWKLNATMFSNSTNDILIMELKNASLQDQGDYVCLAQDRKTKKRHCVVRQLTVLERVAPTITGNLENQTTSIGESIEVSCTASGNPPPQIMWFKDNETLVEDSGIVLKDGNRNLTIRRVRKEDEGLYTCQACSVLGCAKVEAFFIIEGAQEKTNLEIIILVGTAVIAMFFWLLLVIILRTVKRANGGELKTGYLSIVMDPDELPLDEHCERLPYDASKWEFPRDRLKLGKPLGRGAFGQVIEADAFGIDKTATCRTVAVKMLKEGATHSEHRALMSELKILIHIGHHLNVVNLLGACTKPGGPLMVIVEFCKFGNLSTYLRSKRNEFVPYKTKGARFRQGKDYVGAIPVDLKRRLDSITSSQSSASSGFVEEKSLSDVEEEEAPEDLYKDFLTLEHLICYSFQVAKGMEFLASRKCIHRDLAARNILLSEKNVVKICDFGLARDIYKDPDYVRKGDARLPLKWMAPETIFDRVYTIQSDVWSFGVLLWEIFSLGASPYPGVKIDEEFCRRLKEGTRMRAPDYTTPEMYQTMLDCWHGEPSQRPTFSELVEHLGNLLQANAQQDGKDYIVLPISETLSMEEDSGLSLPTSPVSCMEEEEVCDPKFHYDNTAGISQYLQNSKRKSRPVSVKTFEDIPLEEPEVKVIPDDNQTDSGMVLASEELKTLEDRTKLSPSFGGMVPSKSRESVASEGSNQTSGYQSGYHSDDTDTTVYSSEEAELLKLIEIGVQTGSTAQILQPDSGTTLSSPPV

[3] = Table 3, selective inhibitors of VEGFR2

Compound	IC50 [1]	IC50 [2]	IC50 ([1]; Table 3)	IC50 [2, 3]
COc1cc2c(Nc3ccc(F)c(Cl)c3F)ncnc2cc1OCC1CN(C)C(C)(C)CO1 (stereo not drawn) [compound 57802650]	50 nM	50 nM		
COc1cc2c(Nc3ccc(Cl)c(Cl)c3F)ncnc2cc1OCC1CN(C)C(C)(C)CO1 (stereo not drawn) [compound 57802653]	50 nM	50 nM		
COc1cc2c(Nc3ccc(Cl)c(Cl)c3)ncnc2cc1OCC1CN(S(=O)(=O)CCCCl)CCO1 (stereo not drawn) [compound 57802656]	50 nM	50 nM		
COc1cc2c(Nc3ccc(Cl)c(Cl)c3)ncnc2cc1OCC1CN(C)C(C)(C)CO1 (stereo not drawn) [compound 57802660]	50 nM	50 nM		
COc1cc2c(Nc3ccc(Br)c(Cl)c3Cl)ncnc2cc1OCC1CN(C)CCO1 (stereo not drawn) [compound 57802669]	50 nM	50 nM		
CCCN1CCCOC(COc2cc3ncnc(Nc4ccc(Cl)c(Cl)c4)c3cc2OC)C1 (stereo not drawn) [compound 57802675]	50 nM	50 nM		
COc1cc2c(Nc3ccc(Cl)c(Cl)c3)ncnc2cc1OC[C@@H]1CN2CCC[C@H]2CO1 [compound 57802678]	50 nM	50 nM		
COc1cc2c(Nc3ccc(Cl)c(Cl)c3)ncnc2cc1OCc1nc(N2CCNCC2)no1 [compound 57802679]	50 nM	50 nM		
COc1cc2c(Nc3ccc(F)c(Cl)c3F)ncnc2cc1OCC1CN(C)CCO1 (stereo not drawn) [compound 57802680]	50 nM	50 nM		
COc1cc2c(Nc3ccc(Cl)c(Cl)c3)ncnc2cc1OCC1CN(C(=O)c2cccnc2Cl)CCO1 (stereo not drawn) [compound 57802694]	50 nM	50 nM		
CCOc1cc2c(Nc3ccc(Cl)c(Cl)c3)ncnc2cc1OCC1CN(C)CCO1 (stereo not drawn) [compound 57802695]	50 nM	50 nM		
COc1cc2c(Nc3ccc(Cl)c(Cl)c3)ncnc2cc1OCC1CN2CSC[C@H]2CO1 (stereo partly drawn) [compound 57802698]	50 nM	50 nM		
CCOc1cc2c(Nc3ccc(Cl)c(Cl)c3)ncnc2cc1OCC1CNCCO1 (stereo not drawn) [compound 57802713]	50 nM	50 nM		
COc1cc2c(Nc3ccc(Br)c(Cl)c3F)ncnc2cc1OC[C@@H]1CN(C)CC(=O)N1C [compound 57802721]	50 nM	50 nM		
COc1cc2c(Nc3ccc(Br)c(Cl)c3Cl)ncnc2cc1OC[C@@H]1CN2CCC[C@H]2CO1 [compound 57802722]	50 nM	50 nM		
COc1cc2c(Nc3ccc(Cl)c(Cl)c3)ncnc2cc1OCC1CN(C(C)=O)CCCO1 (stereo not drawn) [compound 57802725]	50 nM	50 nM		
COc1cc2c(Nc3ccc(Cl)c(Cl)c3)ncnc2cc1OCCC1CN(C)CC(C)(C)O1 (stereo not drawn) [compound 57802732]	50 nM	50 nM		
COc1cc2c(Nc3ccc(Cl)c(Cl)c3)ncnc2cc1OCC1CN(C(=NC#N)N2CCCCC2)CCO1 (stereo not drawn) [compound 57802736]	50 nM	50 nM		
CCN1CCOC(COc2cc3ncnc(Nc4ccc(Cl)c(Cl)c4)c3cc2OC)C1 (stereo not drawn) [compound 57802737]	50 nM	50 nM		
COc1cc2c(Nc3ccc(Br)c(Cl)c3F)ncnc2cc1OCC1CN(C)C(C)(C)CO1 (stereo not drawn) [compound 57802747]	50 nM	50 nM		
COc1cc2c(Nc3ccc(Cl)c(Cl)c3)ncnc2cc1OCCN1C(=O)c2ccccc2C1=O [compound 57802754]	50 nM	50 nM		
COc1cc2c(Nc3ccc(Br)c(Cl)c3)ncnc2cc1OCC1CN(C)CCO1 (stereo not drawn) [compound 57802766]	50 nM	50 nM		
COc1cc2c(Nc3cc(Cl)c(Br)cc3F)ncnc2cc1OCC1CN(C)C(C)(C)CO1 (stereo not drawn) [compound 57802776]	50 nM	50 nM		

Compound	IC50 [1]	IC50 [2]	IC50 ([1]; Table 3)	IC50 [2, 3]
COc1cc2c(Nc3ccc(C)c(Cl)c3Cl)ncnc2cc1OCC1CN(C)CCO1 (stereo not drawn) [compound 57802779]	50 nM	50 nM		
COc1cc2c(Nc3ccc(Br)c(Cl)c3)ncnc2cc1OC1CCN(C)C1 (stereo not drawn) [compound 57802786]	50 nM	50 nM		
COc1cc2c(Nc3ccc(Cl)c(Cl)c3F)ncnc2cc1OC[C@@H]1CN2CCC[C@H]2CO1 [compound 57802793]			50 nM	50 nM
CC(C)Oc1cc2c(Nc3ccc(Cl)c(Cl)c3)ncnc2cc1OCC1CN(C)CCO1 (stereo not drawn) [compound 57802797]	50 nM	50 nM		
COc1cc2c(Nc3ccc(Cl)c(Cl)c3)ncnc2cc1OC[C@@H]1O[C@@H](OC)[C@@H](O)[C@H](O)[C@H]1O [compound 57802800]	50 nM	50 nM		
COc1cc2c(Nc3ccc(Cl)c(Cl)c3Cl)ncnc2cc1OCC1CN(C)CCO1 (stereo not drawn) [compound 57802801]	50 nM	50 nM		
COc1cc2c(Nc3ccc(Br)c(Cl)c3F)ncnc2cc1OC[C@@H]1CN2CCC[C@H]2C(=O)N1 [compound 57802807]	50 nM	50 nM		
CCS(=O)(=O)N1CCOC(COc2cc3ncnc(Nc4ccc(Cl)c(Cl)c4)c3cc2OC)C1 (stereo not drawn) [compound 57802817]			50 nM	50 nM
COc1cc2c(Nc3ccc(Cl)c(Cl)c3)ncnc2cc1OCC1CN(C)C(C)(C)C(=O)O1 (stereo not drawn) [compound 57802818]			50 nM	50 nM
CCCCN1CCOC(COc2cc3ncnc(Nc4ccc(Cl)c(Cl)c4)c3cc2OC)C1 (stereo not drawn) [compound 57802833]			50 nM	50 nM
COc1cc2c(Nc3ccc(Br)c(C)c3)ncnc2cc1OCC1CN(C)CCO1 (stereo not drawn) [compound 57802842]			50 nM	50 nM
COc1cc2c(Nc3cc(F)c(Br)c(F)c3)ncnc2cc1OCC1CN(C)CCO1 (stereo not drawn) [compound 57802849]			50 nM	50 nM
COc1cc2c(Nc3cc(Cl)c(Cl)cc3F)ncnc2cc1OCC1CN(C)C(C)(C)CO1 (stereo not drawn) [compound 57802853]			50 nM	50 nM
COc1cc2c(Nc3ccc(Cl)c(Cl)c3)ncnc2cc1OCc1csc(C2CCN(C)CC2)n1 [compound 57802861]			50 nM	50 nM
COc1cc2c(Nc3ccc(Cl)c(Cl)c3)ncnc2cc1OCc1csc(C2CCCCN2)n1 (stereo not drawn) [compound 57802866]			50 nM	50 nM
COc1cc2c(Nc3ccc(Br)c(Cl)c3C)ncnc2cc1OCC1CN(C)CCO1 (stereo not drawn) [compound 57802867]			50 nM	50 nM
COc1cc2c(Nc3ccc(Cl)c(Cl)c3)ncnc2cc1OCC1CN(C(=O)C2CCCC2)CCO1 (stereo not drawn) [compound 57802868]			50 nM	50 nM
COc1cc2c(Nc3ccc(Cl)c(Cl)c3)ncnc2cc1OCC1CN(C(=O)c2c(C)noc2C)CCO1 (stereo not drawn) [compound 57802871]			50 nM	50 nM
COc1cc2c(Nc3ccc(Cl)c(Cl)c3)ncnc2cc1OCC1CN(C(N)=NC#N)CCO1 (stereo not drawn) [compound 57802878]			50 nM	50 nM
COc1cc2c(Nc3ccc(Cl)c(Cl)c3)ncnc2cc1OC[C@H]1CN2CCC[C@@H]2CO1 [compound 57802880]			50 nM	50 nM
COc1cc2c(Nc3ccc(Cl)c(Cl)c3)ncnc2cc1OCCC1CN(C)C(C)(C)CO1 (stereo not drawn) [compound 57802889]			50 nM	50 nM
COc1cc2c(Nc3ccc(Br)c(Cl)c3F)ncnc2cc1OC[C@@H]1CN(C)CC(=O)N1 [compound 57802892]			50 nM	50 nM
